Here are results for 13 molecules from paper PMC7570544, “Biological Activities and ADMET-Related Properties of Novel Set of Cinnamanilides” (Molecules, 2020).

Data set [1] has as its system Mycobacterium tuberculosis H37Ra/ATCC 25177. Description: In vitro antimycobacterial evaluation. The data set is classed as cell-based. Particulars: M. tuberculosis H37Ra. The text has this: Isoniazid (Sigma) was used as the standard.
Data set [2] has as its system methicillin-resistant Staphylococcus aureus (MRSA) 63718. In words: In vitro antibacterial evaluation, broth microdilution MIC, MRSA isolate 63718. The data set is classed as cell-based. Conditions: clinical isolate MRSA 63718.
Data set [3] deals with methicillin-resistant Staphylococcus aureus (MRSA) SA 630. Description: In vitro antibacterial evaluation, broth microdilution MIC, MRSA isolate SA 630. The data set is classed as cell-based. Particulars: clinical isolate MRSA SA 630.
Data set [4] concerns Staphylococcus aureus ATCC 29213. In words: In vitro antibacterial evaluation, broth microdilution MIC, reference strain. The data set is classed as cell-based. Conditions: Staphylococcus aureus, ATCC29213; S. aureus ATCC 29213.
For data set [5], the system named is THP1-Blue™ NF-κB cell line. Description: In vitro cell viability assay (WST-1). The class given is cell-based. Conditions: Homo sapiens; THP1-Blue NF-κB cells, 24 h incubation, WST-1, mean ± SEM, n = 6; read-out: Tox IC50 ± SEM. As for the experimental part:
The cytotoxic effect of the tested compounds was specified on THP1-Blue™ NF-κB cell line (Invivogen; San Diego, CA, USA), as described previously. […] The final concentration of DMSO was 0.1% (v/v) in each well. The viability analysis was performed after 24 h incubation with the tested substances using the WST-1 Cell Proliferation Reagent kit (Roche Diagnostics, Basel, Switzerland) according to the manufacturer’s manual. […] The IC50 values were calculated by four-parameter logistic (4PL) analysis from obtained viability curves by GraphPad Prism 8.0.1 (San Diego, CA, USA) software.

The conditions of data set [6]: RP-HPLC, 72:28 MeOH:H2O.
A short description of data set [7]: Lipophilicity determination by RP-TLC. The class given is physicochemical. Further details: key to RM (MeOH:H2O): RM = log(1/RF - 1), from RP-18 TLC. Particulars: for RM (MeOH:H2O): 72:28 MeOH:H2O; for RM (pH 7.4): 72:28 MeOH:NaOAc buffer (pH 7.4). Here is the method: RM values were determined from the RP-18 TLC measurements. […] The volatiles were carefully evaporated, and the plate was developed by MeOH (100%) or MeOH: H2O-HPLC (72:28 v/v) or MeOH: NaOAc buffer, pH 7.4 (72:28 v/v). After drying, the spots were visualized under UV (λ = 365 nm). RM data were obtained from equation: RM = log(1/RF-1). Each experiment was repeated three times.

In brackets after ≈: the same amount, converted by molar mass. Some results are limits rather than exact numbers.

`NNC(=O)c1ccncc1` [INH, isoniazid, reference compound]: the minimal inhibitory concentration (MIC) in data set [1] is 36.6 µM (≈ 5.02 µg/mL).

On to `CC1(C)S[C@@H]2[C@H](NC(=O)[C@H](N)c3ccccc3)C(=O)N2[C@H]1C(=O)O` [AMP, ampicillin, reference compound], for which the minimal inhibitory concentration (MIC) in data set [2] and in data set [3] was 45.8 µM (≈ 16 µg/mL) in each case.

Regarding `O=C(/C=C/c1ccccc1)Nc1ccc([N+](=O)[O-])cc1C(F)(F)F` [Compound 17, (2E)-N-[4-Nitro-2-(trifluoromethyl)phenyl]-3-phenylprop-2-enamide], the MIC in data set [4] was over 762 µM; in data set [2], over 762 µM; in data set [1], over 381 µM; in data set [3], over 762 µM. Besides, in data set [5], the IC50 is over 20 µM. The molecule also showed a Logk in data set [6] of 0.3794. Further, the chromatographic logD was found to be 0.399 in the data set “physchem” (pH 6.5) and 0.443 in the data set “physchem” (pH 7.4). In addition, the “RM (MeOH:H2O)” value in data set [7] is 0.4998. Besides, the “RM (pH 7.4)” value in data set [7] was 0.4311. The “RM (100% MeOH)” value in data set [7] was −0.5633.

As for `O=C(/C=C/c1ccccc1)Nc1ccc(Cl)cc1Br` [Compound 12, (2E)-N-(2-Bromo-4-chlorophenyl)-3-phenylprop-2-enamide], the MIC in data set [4] was over 766 µM; in data set [2] it was over 766 µM; in data set [1], over 383 µM; in data set [3] it was over 766 µM. In addition, in data set [5], the 50% inhibitory concentration (IC50) was over 20 µM. In addition, in data set [6], the Logk turned out to be 0.5476. The chromatographic logD in “physchem” (pH 6.5) worked out at 0.586; in the data set “physchem” (pH 7.4) it was 0.606. Further, the “RM (MeOH:H2O)” value in data set [7] was determined as 0.6553. Also, in data set [7], the “RM (pH 7.4)” value was determined as 0.6484. Moreover, the “RM (100% MeOH)” value in data set [7] was −0.4072.

For the molecule `O=C(/C=C/c1ccccc1)Nc1ccc(Cl)cc1C(F)(F)F` [Compound 15, (2E)-N-[4-Chloro-2-(trifluoromethyl)phenyl]-3-phenylprop-2-enamide], the MIC in data set [4] was over 788 µM; in data set [2], over 788 µM; in data set [1], over 394 µM; in data set [3] it was over 788 µM. For the same molecule, the IC50 in data set [5] was over 20 µM. Besides, in data set [6], the Logk was 0.4113. Further, the chromatographic logD in “physchem” (pH 6.5) turned out to be 0.454; in “physchem” (pH 7.4) it was 0.474. For the same molecule, the “RM (MeOH:H2O)” value in data set [7] came out at 0.5305. Also, in data set [7], the “RM (pH 7.4)” value was found to be 0.3219. For the same molecule, the “RM (100% MeOH)” value in data set [7] is given as −0.6102.

Turning to `O=C(/C=C/c1ccccc1)Nc1ccc(Br)c(Cl)c1` [Compound 11, (2E)-N-(4-Bromo-3-chlorophenyl)-3-phenylprop-2-enamide], the MIC was over 766 µM in data set [4], 192 µM (≈ 64.6 µg/mL) in data set [2], over 383 µM in data set [1] and 192 µM (≈ 64.6 µg/mL) in data set [3]. Besides, in data set [5], the IC50 was determined as 6.5 ± 1 µM. In data set [6], the Logk was 0.6611. Further, the chromatographic logD came out at 0.691 in “physchem” (pH 6.5) and 0.713 in the data set “physchem” (pH 7.4). Further, the “RM (MeOH:H2O)” value in data set [7] was found to be 0.8388. Further, the “RM (pH 7.4)” value in data set [7] is listed as 0.8181. Further, the “RM (100% MeOH)” value in data set [7] is on record as −0.3376.

With `O=C(/C=C/c1ccccc1)Nc1cc(F)c(F)c(F)c1` [Compound 3, (2E)-3-Phenyl-N-(3,4,5-trifluorophenyl)prop-2-enamide], the minimal inhibitory concentration (MIC) is 462 µM (≈ 128 µg/mL) in data set [4], over 924 µM in data set [2], over 462 µM in data set [1] and over 924 µM in data set [3]. Also, in data set [5], the IC50 is over 20 µM. For the same molecule, the Logk in data set [6] is 0.4893. The chromatographic logD came to 0.527 in the data set “physchem” (pH 6.5) and 0.549 in “physchem” (pH 7.4). For the same molecule, the “RM (MeOH:H2O)” value in data set [7] came to 0.6074. For the same molecule, the “RM (pH 7.4)” value in data set [7] stood at 0.5495. Besides, in data set [7], the “RM (100% MeOH)” value is reported as −0.4206.

For the molecule `O=C(/C=C/c1ccccc1)Nc1ccc(Br)cc1Br` [Compound 7, (2E)-N-(2,4-Dibromophenyl)-3-phenylprop-2-enamide], the MIC in data set [4] is over 677 µM; in data set [2], over 677 µM; in data set [1] it was over 339 µM; in data set [3], over 677 µM. Further, in data set [5], the 50% inhibitory concentration (IC50) was over 20 µM. The same molecule returned a Logk in data set [6] of 0.6152. In addition, the chromatographic logD in “physchem” (pH 6.5) amounted to 0.652; in the data set “physchem” (pH 7.4), 0.67. Also, in data set [7], the “RM (MeOH:H2O)” value stood at 0.7331. Moreover, the “RM (pH 7.4)” value in data set [7] is on record as 0.7295. Besides, the “RM (100% MeOH)” value in data set [7] is listed as −0.3098.

For `O=C(/C=C/c1ccccc1)Nc1cc(Cl)ccc1F` [Compound 8, (2E)-N-(5-Chloro-2-fluorophenyl)-3-phenylprop-2-enamide], the minimal inhibitory concentration (MIC) was 931 µM (≈ 257 µg/mL) in data set [4], over 931 µM in data set [2], over 465 µM in data set [1] and over 931 µM in data set [3]. Further, the concentration for half-maximal inhibition (IC50) in data set [5] is over 20 µM. The molecule further had a Logk in data set [6] of 0.3692. In addition, the chromatographic logD stood at 0.415 in “physchem” (pH 6.5) and 0.433 in “physchem” (pH 7.4). The “RM (MeOH:H2O)” value in data set [7] is 0.5411. For the same molecule, in data set [7], the “RM (pH 7.4)” value came to 0.5495. Besides, the “RM (100% MeOH)” value in data set [7] is given as −0.4711.

In the case of `O=C(/C=C/c1ccccc1)Nc1c(Br)cc(C(F)(F)F)cc1Br` [Compound 19, (2E)-N-[2,6-Dibromo-4-(trifluoromethyl)phenyl]-3-phenylprop-2-enamide], the minimal inhibitory concentration (MIC) is over 574 µM in data set [4], over 574 µM in data set [2], over 287 µM in data set [1] and over 574 µM in data set [3]. In addition, the IC50 in data set [5] is over 20 µM. In data set [6], this molecule came in with a Logk of 0.4321. For the same molecule, the chromatographic logD was found to be 0.473 in “physchem” (pH 6.5) and 0.494 in “physchem” (pH 7.4). Moreover, the “RM (MeOH:H2O)” value in data set [7] was 0.5301. In data set [7], the “RM (pH 7.4)” value is 0.3733. Moreover, the “RM (100% MeOH)” value in data set [7] was −0.5206.

Turning to `O=C(/C=C/c1ccccc1)Nc1ccc(Br)cc1C(F)(F)F` [Compound 16, (2E)-N-[4-Bromo-2-(trifluoromethyl)phenyl]-3-phenylprop-2-enamide], the MIC in data set [4] was over 696 µM; in data set [2], over 696 µM; in data set [1] it was over 348 µM; in data set [3] it was over 696 µM. The half-inhibitory concentration (IC50) in data set [5] is over 20 µM. Moreover, the Logk in data set [6] was 0.4683. Further, the chromatographic logD in the data set “physchem” (pH 6.5) was determined as 0.51; in “physchem” (pH 7.4), 0.532. Further, the “RM (MeOH:H2O)” value in data set [7] is listed as 0.5730. Further, the “RM (pH 7.4)” value in data set [7] stood at 0.4273. Also, the “RM (100% MeOH)” value in data set [7] is −0.5624.

For `O=C(/C=C/c1ccccc1)Nc1cc(Cl)c(Cl)c(Cl)c1` [Compound 6, (2E)-3-Phenyl-N-(3,4,5-trichlorophenyl)prop-2-enamide], the MIC was over 790 µM in data set [4], over 790 µM in data set [2], over 395 µM in data set [1] and over 790 µM in data set [3]. Besides, in data set [5], the IC50 was over 20 µM. Further, the Logk in data set [6] is 0.9671. The chromatographic logD in “physchem” (pH 6.5) was 0.99; in “physchem” (pH 7.4) it was 1.01. In data set [7], the “RM (MeOH:H2O)” value turned out to be 1.0852. Also, the “RM (pH 7.4)” value in data set [7] was determined as 1.1306. In data set [7], the “RM (100% MeOH)” value is reported as −0.1870.

Regarding `O=C(/C=C/c1ccccc1)Nc1ccc(Br)c(F)c1` [Compound 9, (2E)-N-(4-Bromo-3-fluorophenyl)-3-phenylprop-2-enamide], the MIC in data set [4] was over 805 µM; in data set [2] it was over 805 µM; in data set [1], over 403 µM; in data set [3] it was 805 µM (≈ 258 µg/mL). The IC50 in data set [5] was over 20 µM. The same molecule gave a Logk in data set [6] of 0.5025. In addition, the chromatographic logD is 0.541 in the data set “physchem” (pH 6.5) and 0.56 in the data set “physchem” (pH 7.4). The “RM (MeOH:H2O)” value in data set [7] worked out at 0.6797. Moreover, the “RM (pH 7.4)” value in data set [7] was found to be 0.6895. In addition, the “RM (100% MeOH)” value in data set [7] was −0.4081.
